Test system: S. aureus ATCC 33591
Experiment: MIC against drug-resistant bacteria, S. aureus ATCC 33591
Type: cell-based
Settings: organism C = S. aureus ATCC 33591, methycillin resistant strain (MRSA)
Experimental: (§1) Compounds according to this invention were screened for their in vitro activities against selected species of bacteria and fungi. The minimal inhibition concentration (MIC) of these compounds was determined using the National Committee for Clinical Laboratory Standards (NCCLS) broth microdilution assay in microtiter plates, as set forth in: (1) the guidelines of the National Committee for Clinical Laboratory Standards (NCCLS) Document M7-A4 (NCCLS, 1997); (2) the guidelines of the National Committee for Clinical Laboratory Standards (NCCLS) Document M11-A4 (NCCLS, 1997); and (3) the guidelines and reference method of the National Committee for Clinical Laboratory Standards (NCCLS) Document M27-T (NCCLS, 1995). For antifungal essays, the method recommended in Murray, PR., 1995 Manual of Clinical Microbiology (ASM Press, Washington, D.C.), was employed.
(§2) Further, compounds (I) are effective against drug-resistant bacteria, as evidenced by the data in Table 2 below:
(§3) ATCC 27660 and ATCC 33591 are methycillin resistant strains of S. aureus (MRSA's). ATCC 51559 is a vancomycin resistant strain of E. faecium (VRE). ATCC 12228 is a methycillin resistant strain of S. epidermis (MRSE). ATCC 51422 is a penicillin resistant strain of S. pneumoniae.

| SMILES | Minimum Inhibitoty Concentration (MIC) |
| --- | --- |
| Cn1cc(NC(=O)c2ccc(Cl)cc2F)cc1C(=O)Nc1cc(-c2nc3ccc(C(=O)NCCN4CCOCC4)cc3[nH]2)n(C)c1 [Compound I-13] | +++ (MIC ≦4) |
| Cn1cc(NC(=O)c2ccc(Cl)cc2F)cc1C(=O)Nc1cc(-c2nc3ccc(C(=O)NCCN4CCSCC4)cc3[nH]2)n(C)c1 [Compound I-14] | +++ (MIC ≦4) |
| Cn1cc(NC(=O)c2ccc(Cl)cc2F)cc1C(=O)Nc1cc(-c2nc3ccc(C(=O)NCCN4CCCCC4)cc3[nH]2)n(C)c1 [Compound I-15] | +++ (MIC ≦4) |
| Cn1cc(NC(=O)c2ccc(F)cc2F)cc1C(=O)Nc1cc(-c2nc3ccc(C(=O)NCCN4CCOCC4)cc3[nH]2)n(C)c1 [Compound I-19] | +++ (MIC ≦4) |
| Cn1cc(NC(=O)c2ccc(F)cc2F)cc1C(=O)Nc1cc(-c2nc3ccc(C(=O)NCCN4CCSCC4)cc3[nH]2)n(C)c1 [Compound I-20] | +++ (MIC ≦4) |
| Cn1cc(NC(=O)c2ccc(F)cc2F)cc1C(=O)Nc1cc(-c2nc3ccc(C(=O)NCCN4CCCCC4)cc3[nH]2)n(C)c1 [Compound I-21] | +++ (MIC ≦4) |
| Cn1cc(NC(=O)c2ccc3nc(-c4cc(NC(=O)c5cc6ccccc6cn5)cn4C)[nH]c3c2)cc1C(=O)NCCN1CCCCC1 [Compound I-22] | +++ (MIC ≦4) |
| Cn1cc(NC(=O)c2sc3ccccc3c2Cl)cc1C(=O)Nc1cc(-c2nc3ccc(C(=O)NCCN4CCSCC4)cc3[nH]2)n(C)c1 [Compound I-23] | ++ (MIC between 4 and 12) |
| C[C@@H]1CN(CCNC(=O)c2ccc3nc(-c4cc(NC(=O)c5cc(NC(=O)c6sc7ccccc7c6Cl)cn5C)cn4C)[nH]c3c2)C[C@H](C)O1 [Compound I-26] | + (MIC from 12 to 32, inclusive) |
| C[C@@H]1CN(CCNC(=O)c2ccc3nc(-c4cc(NC(=O)c5cc(NC(=O)c6cc7ccccc7cn6)cn5C)cn4C)[nH]c3c2)C[C@H](C)O1 [Compound I-29] | +++ (MIC ≦4) |
| Cn1cc(NC(=O)c2ccc3nc(-c4cc(NC(=O)c5cc6ccccc6cn5)cn4C)[nH]c3c2)cc1C(=O)NCCN1CCOCC1 [Compound I-31] | +++ (MIC ≦4) |

Test system: S. pneumoniae ATCC 51422
Experiment: MIC against drug-resistant bacteria, S. pneumoniae ATCC 51422
Type: cell-based
Settings: organism E = S. pneumoniae ATCC 51422, penicillin resistant strain
Experimental: as §1, §2, §3

| SMILES | Minimum Inhibitoty Concentration (MIC) |
| --- | --- |
| Cn1cc(NC(=O)c2ccc(Cl)cc2F)cc1C(=O)Nc1cc(-c2nc3ccc(C(=O)NCCN4CCOCC4)cc3[nH]2)n(C)c1 [Compound I-13] | +++ (MIC ≦4) |
| Cn1cc(NC(=O)c2ccc(Cl)cc2F)cc1C(=O)Nc1cc(-c2nc3ccc(C(=O)NCCN4CCSCC4)cc3[nH]2)n(C)c1 [Compound I-14] | +++ (MIC ≦4) |
| Cn1cc(NC(=O)c2ccc(Cl)cc2F)cc1C(=O)Nc1cc(-c2nc3ccc(C(=O)NCCN4CCCCC4)cc3[nH]2)n(C)c1 [Compound I-15] | +++ (MIC ≦4) |
| Cn1cc(NC(=O)c2ccc(F)cc2F)cc1C(=O)Nc1cc(-c2nc3ccc(C(=O)NCCN4CCOCC4)cc3[nH]2)n(C)c1 [Compound I-19] | +++ (MIC ≦4) |
| Cn1cc(NC(=O)c2ccc(F)cc2F)cc1C(=O)Nc1cc(-c2nc3ccc(C(=O)NCCN4CCSCC4)cc3[nH]2)n(C)c1 [Compound I-20] | +++ (MIC ≦4) |
| Cn1cc(NC(=O)c2ccc(F)cc2F)cc1C(=O)Nc1cc(-c2nc3ccc(C(=O)NCCN4CCCCC4)cc3[nH]2)n(C)c1 [Compound I-21] | +++ (MIC ≦4) |
| Cn1cc(NC(=O)c2ccc3nc(-c4cc(NC(=O)c5cc6ccccc6cn5)cn4C)[nH]c3c2)cc1C(=O)NCCN1CCCCC1 [Compound I-22] | +++ (MIC ≦4) |
| Cn1cc(NC(=O)c2sc3ccccc3c2Cl)cc1C(=O)Nc1cc(-c2nc3ccc(C(=O)NCCN4CCSCC4)cc3[nH]2)n(C)c1 [Compound I-23] | +++ (MIC ≦4) |
| C[C@@H]1CN(CCNC(=O)c2ccc3nc(-c4cc(NC(=O)c5cc(NC(=O)c6sc7ccccc7c6Cl)cn5C)cn4C)[nH]c3c2)C[C@H](C)O1 [Compound I-26] | +++ (MIC ≦4) |
| C[C@@H]1CN(CCNC(=O)c2ccc3nc(-c4cc(NC(=O)c5cc(NC(=O)c6cc7ccccc7cn6)cn5C)cn4C)[nH]c3c2)C[C@H](C)O1 [Compound I-29] | +++ (MIC ≦4) |
| Cn1cc(NC(=O)c2ccc3nc(-c4cc(NC(=O)c5cc6ccccc6cn5)cn4C)[nH]c3c2)cc1C(=O)NCCN1CCOCC1 [Compound I-31] | +++ (MIC ≦4) |

Test system: E. faecium ATCC 51559
Experiment: MIC against drug-resistant bacteria, E. faecium ATCC 51559
Type: cell-based
Settings: organism A = E. faecium ATCC 51559, vancomycin resistant strain (VRE)
Experimental: as §1, §2, §3

| SMILES | Minimum Inhibitoty Concentration (MIC) |
| --- | --- |
| Cn1cc(NC(=O)c2ccc(Cl)cc2F)cc1C(=O)Nc1cc(-c2nc3ccc(C(=O)NCCN4CCOCC4)cc3[nH]2)n(C)c1 [Compound I-13] | +++ (MIC ≦4) |
| Cn1cc(NC(=O)c2ccc(Cl)cc2F)cc1C(=O)Nc1cc(-c2nc3ccc(C(=O)NCCN4CCSCC4)cc3[nH]2)n(C)c1 [Compound I-14] | +++ (MIC ≦4) |
| Cn1cc(NC(=O)c2ccc(Cl)cc2F)cc1C(=O)Nc1cc(-c2nc3ccc(C(=O)NCCN4CCCCC4)cc3[nH]2)n(C)c1 [Compound I-15] | +++ (MIC ≦4) |
| Cn1cc(NC(=O)c2ccc(F)cc2F)cc1C(=O)Nc1cc(-c2nc3ccc(C(=O)NCCN4CCOCC4)cc3[nH]2)n(C)c1 [Compound I-19] | +++ (MIC ≦4) |
| Cn1cc(NC(=O)c2ccc(F)cc2F)cc1C(=O)Nc1cc(-c2nc3ccc(C(=O)NCCN4CCSCC4)cc3[nH]2)n(C)c1 [Compound I-20] | +++ (MIC ≦4) |
| Cn1cc(NC(=O)c2ccc(F)cc2F)cc1C(=O)Nc1cc(-c2nc3ccc(C(=O)NCCN4CCCCC4)cc3[nH]2)n(C)c1 [Compound I-21] | +++ (MIC ≦4) |
| Cn1cc(NC(=O)c2ccc3nc(-c4cc(NC(=O)c5cc6ccccc6cn5)cn4C)[nH]c3c2)cc1C(=O)NCCN1CCCCC1 [Compound I-22] | +++ (MIC ≦4) |
| Cn1cc(NC(=O)c2sc3ccccc3c2Cl)cc1C(=O)Nc1cc(-c2nc3ccc(C(=O)NCCN4CCSCC4)cc3[nH]2)n(C)c1 [Compound I-23] | +++ (MIC ≦4) |
| C[C@@H]1CN(CCNC(=O)c2ccc3nc(-c4cc(NC(=O)c5cc(NC(=O)c6sc7ccccc7c6Cl)cn5C)cn4C)[nH]c3c2)C[C@H](C)O1 [Compound I-26] | +++ (MIC ≦4) |
| C[C@@H]1CN(CCNC(=O)c2ccc3nc(-c4cc(NC(=O)c5cc(NC(=O)c6cc7ccccc7cn6)cn5C)cn4C)[nH]c3c2)C[C@H](C)O1 [Compound I-29] | +++ (MIC ≦4) |
| Cn1cc(NC(=O)c2ccc3nc(-c4cc(NC(=O)c5cc6ccccc6cn5)cn4C)[nH]c3c2)cc1C(=O)NCCN1CCOCC1 [Compound I-31] | +++ (MIC ≦4) |

Test system: S. aureus ATCC 27660
Experiment: MIC against drug-resistant bacteria, S. aureus ATCC 27660
Type: cell-based
Settings: organism B = S. aureus ATCC 27660, methycillin resistant strain (MRSA)
Experimental: as §1, §2, §3

| SMILES | Minimum Inhibitoty Concentration (MIC) |
| --- | --- |
| Cn1cc(NC(=O)c2ccc(Cl)cc2F)cc1C(=O)Nc1cc(-c2nc3ccc(C(=O)NCCN4CCOCC4)cc3[nH]2)n(C)c1 [Compound I-13] | +++ (MIC ≦4) |
| Cn1cc(NC(=O)c2ccc(Cl)cc2F)cc1C(=O)Nc1cc(-c2nc3ccc(C(=O)NCCN4CCSCC4)cc3[nH]2)n(C)c1 [Compound I-14] | +++ (MIC ≦4) |
| Cn1cc(NC(=O)c2ccc(Cl)cc2F)cc1C(=O)Nc1cc(-c2nc3ccc(C(=O)NCCN4CCCCC4)cc3[nH]2)n(C)c1 [Compound I-15] | +++ (MIC ≦4) |
| Cn1cc(NC(=O)c2ccc(F)cc2F)cc1C(=O)Nc1cc(-c2nc3ccc(C(=O)NCCN4CCOCC4)cc3[nH]2)n(C)c1 [Compound I-19] | +++ (MIC ≦4) |
| Cn1cc(NC(=O)c2ccc(F)cc2F)cc1C(=O)Nc1cc(-c2nc3ccc(C(=O)NCCN4CCSCC4)cc3[nH]2)n(C)c1 [Compound I-20] | +++ (MIC ≦4) |
| Cn1cc(NC(=O)c2ccc(F)cc2F)cc1C(=O)Nc1cc(-c2nc3ccc(C(=O)NCCN4CCCCC4)cc3[nH]2)n(C)c1 [Compound I-21] | +++ (MIC ≦4) |
| Cn1cc(NC(=O)c2ccc3nc(-c4cc(NC(=O)c5cc6ccccc6cn5)cn4C)[nH]c3c2)cc1C(=O)NCCN1CCCCC1 [Compound I-22] | +++ (MIC ≦4) |
| Cn1cc(NC(=O)c2sc3ccccc3c2Cl)cc1C(=O)Nc1cc(-c2nc3ccc(C(=O)NCCN4CCSCC4)cc3[nH]2)n(C)c1 [Compound I-23] | +++ (MIC ≦4) |
| C[C@@H]1CN(CCNC(=O)c2ccc3nc(-c4cc(NC(=O)c5cc(NC(=O)c6sc7ccccc7c6Cl)cn5C)cn4C)[nH]c3c2)C[C@H](C)O1 [Compound I-26] | +++ (MIC ≦4) |
| C[C@@H]1CN(CCNC(=O)c2ccc3nc(-c4cc(NC(=O)c5cc(NC(=O)c6cc7ccccc7cn6)cn5C)cn4C)[nH]c3c2)C[C@H](C)O1 [Compound I-29] | +++ (MIC ≦4) |
| Cn1cc(NC(=O)c2ccc3nc(-c4cc(NC(=O)c5cc6ccccc6cn5)cn4C)[nH]c3c2)cc1C(=O)NCCN1CCOCC1 [Compound I-31] | +++ (MIC ≦4) |

Test system: S. epidermis ATCC 12228
Experiment: MIC against drug-resistant bacteria, S. epidermis ATCC 12228
Type: cell-based
Settings: organism D = S. epidermis ATCC 12228, methycillin resistant strain (MRSE)
Experimental: as §1, §2, §3

| SMILES | Minimum Inhibitoty Concentration (MIC) |
| --- | --- |
| Cn1cc(NC(=O)c2ccc(Cl)cc2F)cc1C(=O)Nc1cc(-c2nc3ccc(C(=O)NCCN4CCOCC4)cc3[nH]2)n(C)c1 [Compound I-13] | +++ (MIC ≦4) |
| Cn1cc(NC(=O)c2ccc(Cl)cc2F)cc1C(=O)Nc1cc(-c2nc3ccc(C(=O)NCCN4CCSCC4)cc3[nH]2)n(C)c1 [Compound I-14] | +++ (MIC ≦4) |
| Cn1cc(NC(=O)c2ccc(Cl)cc2F)cc1C(=O)Nc1cc(-c2nc3ccc(C(=O)NCCN4CCCCC4)cc3[nH]2)n(C)c1 [Compound I-15] | +++ (MIC ≦4) |
| Cn1cc(NC(=O)c2ccc(F)cc2F)cc1C(=O)Nc1cc(-c2nc3ccc(C(=O)NCCN4CCOCC4)cc3[nH]2)n(C)c1 [Compound I-19] | +++ (MIC ≦4) |
| Cn1cc(NC(=O)c2ccc(F)cc2F)cc1C(=O)Nc1cc(-c2nc3ccc(C(=O)NCCN4CCSCC4)cc3[nH]2)n(C)c1 [Compound I-20] | +++ (MIC ≦4) |
| Cn1cc(NC(=O)c2ccc(F)cc2F)cc1C(=O)Nc1cc(-c2nc3ccc(C(=O)NCCN4CCCCC4)cc3[nH]2)n(C)c1 [Compound I-21] | +++ (MIC ≦4) |
| Cn1cc(NC(=O)c2ccc3nc(-c4cc(NC(=O)c5cc6ccccc6cn5)cn4C)[nH]c3c2)cc1C(=O)NCCN1CCCCC1 [Compound I-22] | +++ (MIC ≦4) |
| Cn1cc(NC(=O)c2sc3ccccc3c2Cl)cc1C(=O)Nc1cc(-c2nc3ccc(C(=O)NCCN4CCSCC4)cc3[nH]2)n(C)c1 [Compound I-23] | +++ (MIC ≦4) |
| C[C@@H]1CN(CCNC(=O)c2ccc3nc(-c4cc(NC(=O)c5cc(NC(=O)c6sc7ccccc7c6Cl)cn5C)cn4C)[nH]c3c2)C[C@H](C)O1 [Compound I-26] | +++ (MIC ≦4) |
| C[C@@H]1CN(CCNC(=O)c2ccc3nc(-c4cc(NC(=O)c5cc(NC(=O)c6cc7ccccc7cn6)cn5C)cn4C)[nH]c3c2)C[C@H](C)O1 [Compound I-29] | +++ (MIC ≦4) |
| Cn1cc(NC(=O)c2ccc3nc(-c4cc(NC(=O)c5cc6ccccc6cn5)cn4C)[nH]c3c2)cc1C(=O)NCCN1CCOCC1 [Compound I-31] | +++ (MIC ≦4) |

Reference: patent publication US6716866B2, “Aryl-benzimidazole compounds having antiinfective activity” (GeneSoft Pharmaceuticals, Inc., priority 2001, dated 2004)
